According to PMC3942692, “Mitochondrial FAD-linked Glycerol-3-phosphate Dehydrogenase: A Target for Cancer Therapeutics” (Pharmaceuticals, 2014):

Target: T1, GPD2 (mitochondrial glycerol-3-phosphate dehydrogenase) (Homo sapiens, UniProt P43304)
T1 construct: aa 43-727 (mitochondrial transit peptide removed), N-terminal Strep-tag II, expressed in E. coli GJ1158, Strep-Tactin purified; cDNA from PC-3 cells; EC 1.1.5.3
T1 sequence (P43304 43-727): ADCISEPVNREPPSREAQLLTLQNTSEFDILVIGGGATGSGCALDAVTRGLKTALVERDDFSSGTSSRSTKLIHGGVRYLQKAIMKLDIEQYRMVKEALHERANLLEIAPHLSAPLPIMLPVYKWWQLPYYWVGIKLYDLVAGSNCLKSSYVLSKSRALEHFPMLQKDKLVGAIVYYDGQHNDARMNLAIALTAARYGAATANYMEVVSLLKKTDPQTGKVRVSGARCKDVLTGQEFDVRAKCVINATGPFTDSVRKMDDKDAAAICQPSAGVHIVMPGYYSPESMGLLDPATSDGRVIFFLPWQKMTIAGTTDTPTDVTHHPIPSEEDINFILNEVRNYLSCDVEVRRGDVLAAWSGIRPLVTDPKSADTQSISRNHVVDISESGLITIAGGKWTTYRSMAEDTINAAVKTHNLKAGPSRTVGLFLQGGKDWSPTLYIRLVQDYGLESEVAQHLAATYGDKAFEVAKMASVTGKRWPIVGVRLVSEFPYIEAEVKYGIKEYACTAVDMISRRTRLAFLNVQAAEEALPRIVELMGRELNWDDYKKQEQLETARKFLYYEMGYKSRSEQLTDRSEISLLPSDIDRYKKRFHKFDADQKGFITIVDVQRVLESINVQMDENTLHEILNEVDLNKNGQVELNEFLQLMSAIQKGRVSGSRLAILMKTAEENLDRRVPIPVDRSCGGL
Assay: GPD2 oxidoreductase, resazurin reduction fluorescence
Assay type: biochemical
Settings: 30 mM glycerol-3-phosphate
Description: GPD2 oxidoreductase, resazurin reduction fluorescence on GPD2 (mitochondrial glycerol-3-phosphate dehydrogenase) | six GPD2 activity inhibitors selected for follow-up analysis are shown

EC50 [µM]	Compound
1.23 ± 0.54	CCOC(=O)c1ccc(-n2sccc2=O)cc1 [KM04416]
28 ± 13.9	RH02211
